The values below come from patent US20020049193A1, “N-linked sulfonamides of heterocyclic thioesters” (GPI NIL HOLDINGS, INC., priority 1996, published 2002).

SMILES strings stand for the structures. Like-named read-outs stand apart in the source and are kept apart here.

The target of experiment [1] is FKBP12 (Homo sapiens, UniProt P62942). The experiment in a line: Ki test procedure: inhibition of peptidyl-prolyl isomerase (rotamase) activity, chymotrypsin-coupled assay. The format is biochemical. As to conditions: apparent Ki. The text has this:
The inhibition of the prolyl peptidyl cis-trans isomerase activity of FKBP may be measured as an indicator of this affinity.
The compounds of the invention are shown to inhibit peptidyl-prolyl isomerase (rotamase) activity and can be evaluated by known methods described in the literature (Harding, et al., Nature, 1989, 341:758-760; Holt et al. J. Am. Chem. Soc., 115: 9923-9938). The cis-trans isomerization of an alanine-proline bond in a model substrate, N-succinyl-Ala-Ala-Pro-Phe-p-nitroanilide, is monitored spectrophotometrically in a chymotrypsin-coupled assay, which releases para-nitroanilide from the trans form of the substrate. The inhibition of this reaction caused by the addition of different concentrations of inhibitor is determined, and the data is analyzed as a change in first-order rate constant as a function of inhibitor concentration to yield the apparent Ki values.
In a plastic cuvette are added […] of ice cold assay buffer (25 mM HEPES, pH 7.8, 100 mM NaCl), 10 mL of FKBP (2.5 mM in 10 mM Tris-Cl pH 7.5, 100 mM NaCl, 1 mM dithiothreitol), 25 mL of chymotrypsin (50 mg/ml in 1 mM HCl) and […] of test compound at various concentrations in dimethyl sulfoxide. The reaction is initiated by the addition of 5 mL of substrate (succinyl-Ala-Phe-Pro-Phe-para-nitroanilide, 5 mg/mL in 2.35 mM LiCl in trifluoroethanol).
The absorbance at 390 nm versus time is monitored for 90 seconds using a spectrophotometer and the rate constants are determined from the absorbance versus time data files.
The data for these experiments for representative compounds are presented in Tables II(a) and II(b) under the column “Ki”.

The test system of experiment [2] is chick dorsal root ganglia. The experiment in a line: Chick dorsal root ganglion cultures and neurite outgrowth. As to conditions: Gallus gallus, 48 h; read-out: ED50 (the source's name). The format is cell-based. The protocol:
Dorsal root ganglia were dissected from chick embryos of ten day gestation. Whole ganglion explants were cultured on thin layer Matrigel-coated 12 well plates with Liebovitz L15 plus high glucose media supplemented with 2 mM glutamine and 10% fetal calf serum, and also containing 10 μM cytosine β-D arabinofuranoside (Ara C) at 37° C. in an environment containing 5% CO2. Twenty-four hours later, the DRGs were treated with various immunophilin ligands. Forty-eight hours after drug treatment, the ganglia were visualized under phase contrast or Hoffman Modulation contrast with a Zeiss Axiovert inverted microscope. Photomicrographs of the explants were made, and neurite outgrowth was quantitated. Neurites longer than the DRG diameter were counted as positive, with total number of neurites quantitated per each experimental condition. Three to four DRGs are cultured per well, and each treatment was performed in duplicate.
The data for these experiments for representative compounds are presented in Table II(c) under the column “ED50”.

Experiment [3] has as its system TH-positive dopaminergic neurons in the striatum. Kind of experiment: MPTP model of Parkinson's Disease. It is filed as in vivo. As to conditions: CD1 mice, MPTP 30 mg/kg i.p. 5 days, test compound 4 mg/kg s.c. 10 days, striatum at 18 days. On the procedure:
MPTP lesioning of dopaminergic neurons in mice is used as an animal model of Parkinson's Disease. Four week old male CD1 white mice are dosed i.p. with 30 mg/kg of MPTP for 5 days. Test compounds (4 mg/kg), or vehicle, are administered s.c. along with the MPTP for 5 days, as well as for an additional 5 days following cessation of MPTP treatment. At 18 days following MPTP treatment, the animals are sacrificed and the striata dissected and perfusion-fixed.
Immunostaining is performed on saggital and coronal brain sections using anti-tyrosine hydroxylase […] to quantitate survival and recovery of dopaminergic neurons. In animals treated with MPTP and vehicle, a substantial loss of functional dopaminergic terminals is observed as compared to non-lesioned animals. Lesioned animals receiving test compounds show a significant recovery of TH-stained dopaminergic neurons. This model presents quantitation for the recovery of TH-positive dopaminergic neurons in the striatum of animals receiving the compounds of the present invention. Data for representative control and lesioned animals not receiving the test drugs is also presented against the data from the animals receiving the compounds of the present invention in Table III.

FKBP12, sequence (P62942 whole entry, species assumed): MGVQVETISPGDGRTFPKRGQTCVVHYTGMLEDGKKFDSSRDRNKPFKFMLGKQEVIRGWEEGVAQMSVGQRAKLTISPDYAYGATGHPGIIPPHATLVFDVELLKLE

Consider `COc1ccc(CCCSC(=O)[C@@H]2CCCCN2S(=O)(=O)c2ccc(C)cc2)cc1` (racemic) [Compound 26, 3-(4-Methoxyphenyl)propyl 1-[(4-methylphenyl)sulfonyl]-2-piperidinecarbothioate], for which the Ki in experiment [1] (numerical, read-out: Ki) is 659 nM; in experiment [1] (ranked potency, read-out: Kl) it was greater than 500 nM. Take `COc1ccc(CCCSC(=O)C2CCCCN2S(=O)(=O)Cc2ccccc2)cc1` (racemic) [Compound 27, 3-(4-Methoxyphenyl)propyl 1-(benzylsulfonyl)-2-piperidinecarbothioate]: in experiment [1] (numerical, read-out: Ki), the Ki was determined as 82 nM. In the case of `COc1ccc(CCCSC(=O)C2CCCCN2S(=O)(=O)c2ccccc2)cc1` (racemic) [Compound 28, 3-(4-Methoxyphenyl)propyl 1-(phenylsulfonyl)-2-piperidinecarbothioate], the Ki in experiment [1] (numerical, read-out: Ki) was 196 nM; in experiment [1] (ranked potency, read-out: Kl), 51 to 200 nM.

Take `Cc1ccc(S(=O)(=O)N2CCCCC2C(=O)SCCCc2ccc(C(F)(F)F)cc2)cc1` (racemic) [Compound 29, 3-[4-(Trifluoromethyl)phenyl]propyl 1-[(4-methylphenyl)sulfonyl]-2-piperidinecarbothioate]: the Ki is 69 nM in experiment [1] (numerical, read-out: Ki) and 51 to 200 nM in experiment [1] (ranked potency, read-out: Kl). Consider `O=C(SCCc1ccccc1)C1CCCN1S(=O)(=O)c1ccccc1` (stereo not shown) [Compound 1], for which, in experiment [2], the EC50 is less than 1 nM. On the same count and under the same terms, the value for `O=C(SCCc1ccccc1)C1CCCN1S(=O)(=O)Cc1ccccc1` (stereo not shown) [Compound 2] was 1 to 50 nM.

In the case of `Cc1ccc(S(=O)(=O)N2CCCC2C(=O)SCCc2ccccc2)cc1` (stereo not shown) [Compound 3], in experiment [2], the EC50 lay within 1 to 50 nM. `COc1ccc(CCCSC(=O)[C@@H]2CCCN2S(=O)(=O)c2ccccc2)cc1` [Compound 4, 3-(4-Methoxyphenyl)propyl (2S)-1-(phenylsulfonyl)-2-pyrrolidinecarbothioate]: the Ki in experiment [1] (numerical, read-out: Ki) is 204 nM; in experiment [1] (ranked potency, read-out: Kl), 201 to 500 nM. Also, the EC50 in experiment [2] lay within 51 to 200 nM. In addition, the “% Recovery Tyrosine Hydroxylase” value in experiment [3] was 42%. `COc1ccc(CCCSC(=O)[C@@H]2CCCN2S(=O)(=O)Cc2ccccc2)cc1` [Compound 5, 3-(4-Methoxyphenyl)propyl (2S)-1-(benzylsulfonyl)-2-pyrrolidinecarbothioate]: the Ki was 22 nM in experiment [1] (numerical, read-out: Ki) and 1 to 50 nM in experiment [1] (ranked potency, read-out: Kl). The EC50 in experiment [2] fell in the range of 1 to 50 nM. As for `COc1ccc(CCCSC(=O)[C@@H]2CCCN2S(=O)(=O)c2ccc(C)cc2)cc1` [Compound 6, 3-(4-Methoxyphenyl)propyl (2S)-1-[(4-methylphenyl)sulfonyl]-2-pyrrolidinecarbothioate], the Ki was 145 nM in experiment [1] (numerical, read-out: Ki) and 51 to 200 nM in experiment [1] (ranked potency, read-out: Kl). The EC50 in experiment [2] was in the range of 51 to 200 nM. The “% Recovery Tyrosine Hydroxylase” value in experiment [3] stood at 37%. Regarding `O=C(SCCC(c1ccccc1)c1ccccc1)C1CCCN1S(=O)(=O)c1ccccc1` (stereo not shown) [Compound 7], the EC50 in experiment [2] lay in the range of 1 to 50 nM. Take `O=C(SCCC(c1ccccc1)c1ccccc1)C1CCCN1S(=O)(=O)Cc1ccccc1` (stereo not shown) [Compound 8]: the EC50 in experiment [2] is less than 1 nM.

Turning to `O=C(SCCCCc1ccccc1)C1CCCCN1S(=O)(=O)c1ccccc1` (stereo not shown) [Compound 10], the EC50 in experiment [2] fell in the range of 1 to 50 nM. Regarding `O=C(SCCCCc1ccccc1)C1CCCCN1S(=O)(=O)Cc1ccccc1` (stereo not shown) [Compound 11], in experiment [2], the EC50 was in the range of 1 to 50 nM.

As to `Cc1ccc(S(=O)(=O)N2CCCCC2C(=O)SCCCCc2ccccc2)cc1` (stereo not shown) [Compound 12], the EC50 in experiment [2] lay in the range of 1 to 50 nM. On the same count and under the same terms, the value for `COc1cc(S(=O)(=O)N2CCCCC2C(=O)SCCCCc2ccccc2)cc(OC)c1OC` (stereo not shown) [Compound 13] was less than 1 nM; that for `O=C(SCCCCc1ccccc1)C1CCCCN1S(=O)(=O)C1CCCCC1` (stereo not shown) [Compound 14] was 1 to 50 nM. Still for that read-out and setting: the value for `O=C(SC(CCCc1ccccc1)CCCc1ccccc1)C1CCCCN1S(=O)(=O)c1ccccc1` (stereo not shown) [Compound 15] was less than 1 nM; that for `O=C(SC(CCCc1ccccc1)CCCc1ccccc1)C1CCCCN1S(=O)(=O)Cc1ccccc1` (stereo not shown) [Compound 16] was 51 to 200 nM. Turning to `CCc1ccc(S(=O)(=O)N2CCC[C@H]2C(=O)SCCc2ccccc2)cc1` [Compound 21, Phenethyl (2S)-1-[(4-ethylphenyl)sulfonyl]-2-pyrrolidinecarbothioate], the Ki was 730 nM in experiment [1] (numerical, read-out: Ki) and greater than 500 nM in experiment [1] (ranked potency, read-out: Kl). As for `O=C(SCCCc1ccccc1)[C@@H]1CCCN1S(=O)(=O)Cc1ccccc1` [Compound 23, 3-Phenylpropyl (2S)-1-(benzylsulfonyl)-2-pyrrolidinecarbothioate], the Ki in experiment [1] (ranked potency, read-out: Kl) was in the range of 51 to 200 nM. Moreover, the “% Recovery Tyrosine Hydroxylase” value in experiment [3] is 80%. In the case of `O=C(SCCCc1cccc2ccccc12)[C@@H]1CCCN1S(=O)(=O)Cc1ccccc1` [Compound 24, 3-(1-Naphthyl)propyl (2S)-1-(benzylsulfonyl)-2-pyrrolidinecarbothioate], the Ki was 671 nM in experiment [1] (numerical, read-out: Ki) and greater than 500 nM in experiment [1] (ranked potency, read-out: Kl). For the same compound, the “% Recovery Tyrosine Hydroxylase” value in experiment [3] is given as 40%.
